Here are results for 47 compounds from the SangsterLogP compilation.

The nature of series [1]: method code SF, from Zheng, Y.; Wu, F.; Li, Y. (2001). Determination of ionization constant and partition coefficient of monoxidine. Journal of Shenyang Pharmaceutical University, 18(1)37-39.
Series [2] in a line: method code SF-RC, from DOI: 10.1002/jps.2600840617, PMID: 7562417.
Series [3] can be described thus: method code SF, from DOI: 10.1002/jps.2600620102, PMID: 4566530.
The nature of series [4]: method code G-HPLC, from DOI: 10.6028/nbs.ir.81-2406.
Series [5] is described as follows: method code SF, from DOI: 10.1016/0021-9673(91)85016-9. As to conditions: pH 7.0.
Assay in series [6]: not given
This is another data set of the same source.

A short description of series [7]: method code SF, from DOI: 10.1016/0006-2952(79)90429-5, PMID: 444298.
The nature of series [8]: method code SF-AS, from DOI: 10.1007/bf01067967, PMID: 3820093. The note with it: pH 7.5.
Assay in series [9]: not given
The source holds these as a separate data set.

Assay in series [10]: not given
The source holds these as a separate data set.

Assay in series [11]: not given
The source holds these as a separate data set.

Assay in series [12]: not given
This is another data set of the same source.

A short description of series [13]: method code SF-AS, from DOI: 10.1111/j.2042-7158.1984.tb04385.x, PMID: 6145771. The note with it: pH 9.2.
Series [14] in a line: method code SF-AS, from DOI: 10.1002/chin.198419165, PMID: 6653771. The note with it: pH 2.5.
Assay in series [15]: not given
This is another data set of the same source.

The nature of series [16]: method code SF-AS, from DOI: 10.1016/0304-4165(70)90354-5, PMID: 5474547. The note with it: pH 7.4.
Series [17] can be described thus: from Bundgaard, H.; Hansen, A.; Larsen, C. (1979). Prodrugs as drug delivery systems. VII. Rapid cyclization of methyldiethylthiomalonurate to thiobarbital in aqueous solution. Archiv der Pharmazie - …. As to conditions: pH 3.5.
A short description of series [18]: method code …, from Wang, X.; Song, H. (1996). Determination of octanol-water partition coefficients of organic pollutants by using the dynamic coupled-column liquid chromatographic technique. Transactions of Tianjin ….
Series [19] in a line: method code SF, from DOI: 10.1021/jm00010a006, PMID: 7752187.
Series [20] can be described thus: method code SF-EPR, from DOI: 10.1016/0003-9861(82)90097-2, PMID: 6284047. The note with it: pH 7.4.
Assay in series [21]: not given
This is another data set of the same source.

A short description of series [22]: method code SF-GLC, from Hermens, J., & De Bruijn, J. (1987). A QSAR study for fish toxicity data of organophosphorus compounds. QSAR in Drug Design and Toxicology, 10, 343-345.
Series [23] can be described thus: method code SF-RC, from DOI: 10.1016/0006-2952(75)90159-8, PMID: 1168477.
Assay in series [24]: not given
The source holds these as a separate data set.

Series [25] can be described thus: method code SF, from DOI: 10.1515/bc.2002.085, PMID: 12108546.
A short description of series [26]: method code SF-POL, from DOI: 10.1111/j.1365-2044.1990.tb14524.x, PMID: 2316851. The note with it: pH 7.1.
A short description of series [27]: method code SF-AS, from DOI: 10.1002/qsar.19870060104.
Series [28] is described as follows: method code SF-GLC, from DOI: 10.1016/0147-6513(82)90020-3, PMID: 7106034.
Series [29] in a line: method code SF-AS, from DOI: 10.1002/ps.2780370107. The note with it: pH 0.0.
The nature of series [30]: method code SF-RC, from DOI: 10.1016/0048-3575(88)90037-5.
Series [31] can be described thus: method code SF, from DOI: 10.1248/cpb.33.282, PMID: 4006019. The note with it: pH 1.0.
Assay in series [32]: not given
The source holds these as a separate data set.

A short description of series [33]: method code SF-HPLC, from DOI: 10.1124/dmd.30.12.1497, PMID: 12433825. As to conditions: pH 7.4.
A short description of series [34]: method code SF, from PMID: 23342302. As to conditions: pH 7.4.
Assay in series [35]: not given
This is another data set of the same source.

Assay in series [36]: not given
This is another data set of the same source.

Series [37] is described as follows: method code SF-HPLC, from DOI: 10.1248/bpb.16.154, PMID: 8364451.
The nature of series [38]: method code SF-AS, from DOI: 10.1021/jm00069a002, PMID: 8355246. As to conditions: pH 7.4.
Assay in series [39]: not given
This is another data set of the same source.

Series [40] is described as follows: method code SF-HPLC, from PMID: 1293941.
Series [41] can be described thus: method code SF-HPLC, from DOI: 10.1021/jm010289a, PMID: 11754587. As to conditions: pH 7.0.
Assay in series [42]: not given
The source holds these as a separate data set.

Series [43] can be described thus: method code SF, from DOI: 10.1021/jm00217a007, PMID: 17751. As to conditions: pH 9.0.
Series [44] in a line: method code SF-AS, from DOI: 10.1002/jps.2600600712, PMID: 4398902.
The nature of series [45]: method code SF-AS, from DOI: 10.1021/es00082a014. The note with it: pH 7.0.
Series [46] is described as follows: method code SF-HPLC, from DOI: 10.1016/j.bmc.2011.10.084, PMID: 22130421. The note with it: pH 7.4.

SMILES strings stand for the structures.

Take `COc1nc(C)nc(Cl)c1NC1=NCCN1`: the log partition coefficient (logP) in [1] came out at 1.08.

In series [2], `Nc1ccn(C[C@@H](CO)OCP(=O)(O)O)c(=O)n1` returned a logP of -3.17. In series [3], `Cc1cc(C)c2oc(=O)sc2c1` registered a logP of 3.25. With `CCNc1nc(Cl)nc(NC(C)(C)C#N)n1`, the logP was determined as 2.18. In series [4], `Cc1ccc(C)c(O)c1C` came in with a logP of 2.67. In the case of `O=c1ccn2c(n1)OC1C(O)C(CO)OC12` (configuration not stated), the logD in series [5] is -2.85. For `CCCCCC(CCO)C1N=N1` (configuration not stated), in series [6], the log partition coefficient (logP) was determined as 2.52. Compound `O=NN(CCCl)C(=O)N[C@@H]1O[C@H](CO)[C@@H](O)[C@H](O)[C@H]1O` displayed a logP in series [7] of -1.02. With `CCCc1ccc(N)cc1`, the logD in [8] stood at 2.4. As to `COc1c(Cl)c(Cl)c(Cl)c(OC)c1OC`, the logP in series [9] worked out at 4.8.

On to `CCCOc1ccc(O)cc1`, for which the logP in series [10] was 2.31. In series [11], `C1COCCOCCOCCO1` gave a logP of -0.04. `CC(Oc1ccc(Cl)cc1Cl)C(=O)O` (configuration not stated) displayed a logP in series [12] of 3.43.

As for `CNC(=S)NCCSCc1cncn1C`, in [13], the logD is 0.32. As for `N#CCNc1ccccc1C(=O)O`, the pH-dependent lipophilicity (logD) in [14] turned out to be 1.75. In [15], `CC(C)Nc1nc(Cl)nc(NC2CC2)n1` came in with a logP of 3.06. With `Cc1cc2ccccc2[nH]1`, the pH-dependent lipophilicity (logD) in [16] was 2.53. On to `CCC(CC)(C(=O)NC(N)=S)C(=O)OC`, for which, in series [17], the logD is 1.82.

`ClC1(Cl)C2(Cl)C3(Cl)C4(Cl)C(Cl)(Cl)C5(Cl)C3(Cl)C1(Cl)C5(Cl)C24Cl` (configuration not stated): the logP in series [18] was determined as 6.69. In series [19], `c1ccc(Cn2cnnc2)cc1` gave a logP of 0.74.

In turn, `CCC1(C)OCC(C)(C)N1O` (configuration not stated) showed a logD in series [20] of 0.57. As for `COc1cc(O)cc(C(C)=O)c1`, the log partition coefficient (logP) in [21] stood at 1.85. As to `COP(=S)(OC)Oc1ccc(Cl)cc1C#N`, the logP in series [22] stood at 3.41. Compound `C=CCN(C(C)=O)C(C)C` displayed a logP in series [23] of 1.14.

With `CCCCCCCCO`, the logP in series [24] came to 3. Turning to `CCCOC(=O)C1(C)CCC=[N+]1[O-]` (configuration not stated), in series [25], the logP was -0.3.

Consider `NC(=S)NN=C1C=CC(=NNC(N)N)C=C1`, for which the logD in series [26] is -1.4. `O=c1ccoc2cc(O)ccc12`: the lipophilicity (logP) in [27] is 1.44. As for `CCCCOCCOCCSC#N`, in series [28], the logP was found to be 1.68.

Consider `CCOP(=O)(O)Cc1ccc(Cl)cc1`, for which the logD in series [29] came to 1.6. The compound `CC(C)Nc1nc(Cl)nc(NCCO)n1` registered a logP in series [30] of 0.78. Compound `CCCCCC(=O)N(C)CC(=O)O` displayed a logD in series [31] of 1.14.

For `CCOC(=O)c1ccc(O)cc1`, the logP in series [32] came out at 2.25. For `CCOc1ccccc1C(N)=O`, the logD in series [33] was 1.34. `Cc1c(COC(CO)CF)[nH]c(=O)[nH]c1=O` (configuration not stated) had a pH-dependent lipophilicity (logD) in series [34] of -0.87. In turn, `CCOC(=O)c1ccccc1O` displayed a logP in series [35] of 2.23. `CCCCc1ccncc1`: the logP in series [36] worked out at 3.13. `O=C(O)CNC(=O)c1ccccc1O` yielded a logP in series [37] of 0.95.

For `Cc1c(O)c(=O)ccn1C(C)C`, in series [38], the logD amounted to 0.05. In series [39], `NC(N)=Nc1nc(CSCCC(N)=NS(N)(=O)=O)cs1` displayed a lipophilicity (logP) of -0.56. `CCOC(=O)c1ccc(N)cc1`: the lipophilicity (logP) in [40] came to 1.87. Turning to `CN1C(=O)C(=O)c2ccccc21`, in series [41], the logD is 0.63.

As to `CCOP(=S)(OCC)Oc1nc(Cl)c(Cl)cc1Cl`, in series [42], the logP turned out to be 4.77.

Turning to `CNC(=S)NCCCCc1c[nH]cn1`, the logD in series [43] worked out at 0.51. In turn, `CCN1CCCCCC1=O` registered a logP in [44] of 0.65.

`Cc1cc(C)c(N)cc1C`: the logD in [45] worked out at 2.29.

Take `Cc1ncc([N+](=O)[O-])n1Cc1cn(CCF)nn1`: in series [46], the logD is -0.38.

As a reminder, the logP is a log measure of how a compound divides between an organic and an aqueous phase. A higher logP goes with a more lipophilic compound. What is called logD is lipophilicity at a set pH, counting ionised and neutral species.
